{"source": "ChEMBL document CHEMBL5143567", "about": "“Dose Number as a Tool to Guide Lead Optimization for Orally Bioavailable Compounds in Drug Discovery” (J Med Chem, 2022)", "key": {"[1]": {"assay": "Permeability in human Caco-2 cells", "type": "ADME, cell-based", "settings": "read-out: permeability"}, "[2]": {"assay": "physchem", "settings": "phosphate buffer, pH 6.8", "description": "Aqueous solubility of the compound in phosphate buffer at pH 6.8 measured after 72 hrs by UV-Vis spectrophotometer"}, "[3]": {"assay": "Aqueous solubility of the compound at pH 5", "type": "physicochemical", "settings": "buffer"}, "[4]": {"assay": "Aqueous solubility of the compound at pH 1.8", "type": "physicochemical", "settings": "buffer"}, "[5]": {"assay": "Permeability in MDCK-II cells", "type": "ADME, cell-based, Canis lupus familiaris", "settings": "dog, read-out: permeability"}, "[6]": {"assay": "Aqueous solubility of the compound", "type": "physicochemical", "settings": "buffer"}, "[7]": {"assay": "Permeability in pig LLC-PK1 cells", "type": "ADME, cell-based, Sus scrofa", "settings": "read-out: permeability"}, "[8]": {"assay": "Aqueous solubility of the compound in FaSSIF", "type": "physicochemical"}, "[9]": {"assay": "Aqueous solubility of the compound in buffer", "type": "physicochemical"}, "[10]": {"assay": "Permeability in rat jejunum", "type": "ADME, tissue-based", "settings": "read-out: permeability"}, "[11]": {"assay": "Aqueous solubility of the compound in FaSSIF at pH 6.5 measured by dissolution tester", "type": "physicochemical"}}, "data": [{"molecule": "CCC[C@H](NC(=O)[C@@H]1[C@H]2CCC[C@H]2CN1C(=O)[C@@H](NC(=O)[C@@H](NC(=O)c1cnccn1)C1CCCCC1)C(C)(C)C)C(=O)C(=O)NC1CC1", "values": [{"measurement": "Papp", "setting": "[1]", "value": "> 4.4", "unit": "×10⁻⁶ cm/s"}, {"measurement": "solubility at 72 h", "setting": "[2]", "value": 4.7, "unit": "µg/mL"}]}, {"molecule": "COC(=O)N[C@H](C(=O)N1CCC[C@H]1c1nc(-c2ccc3c(c2)O[C@@H](c2ccccc2)n2c-3cc3cc(-c4c[nH]c([C@@H]5CCCN5C(=O)[C@@H](NC(=O)OC)C(C)C)n4)ccc32)c[nH]1)C(C)C", "note": "[ELBASVIR]", "values": [{"measurement": "solubility", "setting": "[3]", "value": 50, "unit": "µg/mL"}, {"measurement": "solubility", "setting": "[4]", "value": "> 5", "unit": "µg/mL"}, {"measurement": "Papp", "setting": "[5]", "value": 0.8, "unit": "×10⁻⁶ cm/s"}]}, {"molecule": "Cc1cc(C#N)cc(C)c1Oc1nc(Nc2ccc(C#N)cc2)nc(N)c1Br", "note": "[ETRAVIRINE]", "values": [{"measurement": "solubility", "setting": "[6]", "value": "< 1", "unit": "µg/mL"}]}, {"molecule": "C=C[C@@H]1C[C@]1(NC(=O)[C@@H]1C[C@@H]2CN1C(=O)[C@H](C(C)(C)C)NC(=O)O[C@@H]1C[C@H]1CCCCCc1nc3ccc(OC)cc3nc1O2)C(=O)NS(=O)(=O)C1CC1", "note": "[GRAZOPREVIR ANHYDROUS]", "values": [{"measurement": "Papp", "setting": "[7]", "value": 19, "unit": "×10⁻⁶ cm/s"}, {"measurement": "solubility", "setting": "[8]", "value": "< 7", "unit": "µg/mL"}]}, {"molecule": "CC(C)(C)c1cc(C(C)(C)C)c(NC(=O)c2c[nH]c3ccccc3c2=O)cc1O", "note": "[IVACAFTOR]", "values": [{"measurement": "solubility", "setting": "[9]", "value": "< 0.05", "unit": "µg/mL"}]}, {"molecule": "COC(=O)N[C@H](C(=O)N1CCC[C@H]1c1nc2cc([C@H]3CC[C@H](c4cc5nc([C@@H]6CCCN6C(=O)[C@@H](NC(=O)OC)[C@@H](C)OC)[nH]c5cc4F)N3c3cc(F)c(N4CCC(c5ccc(F)cc5)CC4)c(F)c3)c(F)cc2[nH]1)[C@@H](C)OC", "note": "[PIBRENTASVIR]", "values": [{"measurement": "Papp", "setting": "[5]", "value": "< 1", "unit": "×10⁻⁶ cm/s"}]}, {"molecule": "CC(C)c1nc(CN(C)C(=O)N[C@H](C(=O)N[C@@H](Cc2ccccc2)C[C@H](O)[C@H](Cc2ccccc2)NC(=O)OCc2cncs2)C(C)C)cs1", "note": "[RITONAVIR]", "values": [{"measurement": "Papp", "setting": "[1]", "value": 20, "unit": "×10⁻⁶ cm/s"}]}, {"molecule": "Cc1ccc(-n2nccn2)c(C(=O)N2CCN(c3nc4cc(Cl)ccc4o3)CC[C@H]2C)c1", "note": "[SUVOREXANT]", "values": [{"measurement": "Papp", "setting": "[7]", "value": 22.8, "unit": "×10⁻⁶ cm/s"}, {"measurement": "solubility", "setting": "[8]", "value": 9, "unit": "µg/mL"}]}, {"molecule": "C=CC[C@@H]1/C=C(\\C)C[C@H](C)C[C@H](OC)[C@H]2O[C@@](O)(C(=O)C(=O)N3CCCC[C@H]3C(=O)O[C@H](/C(C)=C/[C@@H]3CC[C@@H](O)[C@H](OC)C3)[C@H](C)[C@@H](O)CC1=O)[C@H](C)C[C@@H]2OC", "note": "[TACROLIMUS ANHYDROUS]", "values": [{"measurement": "Papp", "setting": "[10]", "value": 18, "unit": "×10⁻⁶ cm/s"}, {"measurement": "solubility", "setting": "[6]", "value": 1.3, "unit": "µg/mL"}]}, {"molecule": "CCCS(=O)(=O)Nc1ccc(F)c(C(=O)c2c[nH]c3ncc(-c4ccc(Cl)cc4)cc23)c1F", "note": "[VEMURAFENIB]", "values": [{"measurement": "solubility", "setting": "[11]", "value": 2, "unit": "µg/mL"}, {"measurement": "Papp", "setting": "[1]", "value": 2.9, "unit": "×10⁻⁶ cm/s"}]}]}
